Assay results: paper PMC3010440 (Journal of ethnopharmacology, 2010)
Values joined by “and” are separate entries in the source; they are usually repeats but may differ in a detail not shown here. Equal values may be shown once. Read-outs that look alike come from different tables or passages of the source.

How the values were obtained:
Type in all cases: cell-based
[1] = system: Plasmodium falciparum D10; test: Antiplasmodial pLDH assay, chloroquine-sensitive strain D10
[2] = system: Plasmodium falciparum Dd2; test: Antiplasmodial pLDH assay, chloroquine-resistant strain Dd2; settings: for Resistance index (RI): RI = IC50 Dd2 / IC50 D10
[3] = system: Chinese Hamster Ovarian (CHO) cell line; test: Cytotoxicity MTT assay; settings: for CHO Cell line (IC50) / IC50: triplicate; for Selectivity index (SI): SI = IC50 CHO / IC50 D10; for IC50: read-out: CHO Cell line (IC50)
[4] = Plasmodium falciparum, D10, read-out: Plasmodium falciparum D10 (IC50)
[5] = Plasmodium falciparum, DD2, read-out: Plasmodium falciparum Dd2: IC50
[6] = CQ-sensitive D10 strain, pLDH, triplicate, ten point dose response
[7] = read-out: Plasmodium falciparum D10 (IC50), CQ-sensitive D10 strain, pLDH, triplicate, ten point dose response
[8] = CQ-resistant Dd2 strain, pLDH, triplicate, ten point dose response
[9] = read-out: Plasmodium falciparum Dd2: IC50, CQ-resistant Dd2 strain, pLDH, triplicate, ten point dose response

With `CCN(CC)CCCC(C)Nc1ccnc2cc(Cl)ccc12` (stereo not drawn) [Chloroquine, Chloroquine diphosphate, reference compound] the IC50 [1, 4] was 0.01 µg/mL and 30 nM and the IC50 [2, 5] was 0.07 µg/mL and 230 nM.

With `O[C@@H]1c2ccccc2-c2c3c(cc4c2[C@@H]1NCC4)OCO3` [Compound 2, norushinsunine] the “Cytotoxicity (in words)” value [3] was “no observable cytotoxicity”, the “CHO Cell line (IC50)” value ([3]; CHO cells, MTT) was over 100 µg/mL and the “Selectivity index (SI)” value [3] was over 3. For the same compound, the IC50 ([3]; CHO cells, MTT) was over 300 µM, the “Plasmodium falciparum D10 (IC50)” value [1, 6] was 29.6 ± 3.9 µg/mL and the IC50 [1, 7] was 105 ± 13.9 µM. The “Plasmodium falciparum Dd2: IC50” value [2, 8] was 30.9 ± 2.3 µg/mL, the “Resistance index (RI)” value [2] was 1.0 and the IC50 [2, 9] was 110 ± 8.1 µM.

For `COc1cc2c(cc1OC)-c1c(OC)c(OC)cc3c1[C@H](C2)NCC3` [Compound 3, norglaucine], the “Cytotoxicity (in words)” value ([3]; CHO cells, MTT) was “no observable cytotoxicity”, the “CHO Cell line (IC50)” value ([3]; CHO cells, MTT) was over 100 µg/mL and the “Selectivity index (SI)” value [3] was over 5. The IC50 ([3]; CHO cells, MTT) was over 300 µM, the “Plasmodium falciparum D10 (IC50)” value [1, 6] was 22.0 ± 2.8 µg/mL and the IC50 [1, 7] was 64.4 ± 8.2 µM. The “Plasmodium falciparum Dd2: IC50” value [2, 8] was 32.2 ± 1.3 µg/mL, the “Resistance index (RI)” value [2] was 1.5 and the IC50 [2, 9] was 94.3 ± 3.8 µM.

In the case of `O=C1c2ccccc2-c2c3c(cc4ccnc1c24)OCO3` [Compound 4, liriodenine], the “Selectivity index (SI)” value [3] is reported as 2.0, the IC50 [1, 4] is reported as 4.1 µg/mL and 14.9 µM and the IC50 [2, 5] is reported as 7.9 µg/mL and 28.7 µM. For the same compound, the “Resistance index (RI)” value [2] was 1.9.

`c1ccc2c(c1)C[C@H]1NCCc3cc4c(c-2c31)OCO4` [Compound 5, anonaine] was tested, and the “Selectivity index (SI)” value [3] was over 83, the IC50 [1, 4] was 1.2 µg/mL and 4.5 µM and the IC50 [2, 5] was 5.2 µg/mL and 19.6 µM. The “Resistance index (RI)” value [2] was 4.2.

`COc1cc2c(cc1OC)-c1c(OC)c(OC)cc3ccnc(c13)C2=O` [Compound 6, oxoglaucine] was tested, and the “Cytotoxicity (in words)” value ([3]; CHO cells, MTT) was “no observable cytotoxicity”, the “Selectivity index (SI)” value [3] was over 11 and the IC50 [1, 4] was 9.1 µg/mL and 25.9 µM. The IC50 [2, 5] was 20.8 µg/mL and 59.2 µM and the “Resistance index (RI)” value [2] was 2.3.

With `C=C1C(=O)O[C@H]2[C@H]1[C@H](OC(C)=O)CC(=C)[C@H](OO)CC[C@@]1(C)O[C@H]21` [Compound 7, peroxyferolide] the “CHO Cell line (IC50)” value ([3]; CHO cells, MTT) was 3.2 ± 0.6 µg/mL, the “Selectivity index (SI)” value [3] was 0.5 and the IC50 ([3]; CHO cells, MTT) was 9.5 ± 1.8 µM. The “Plasmodium falciparum D10 (IC50)” value [1, 6] was 6.2 ± 0.1 µg/mL, the IC50 [1, 7] was 18.3 ± 0.3 µM and the “Plasmodium falciparum Dd2: IC50” value [2, 8] was 4.3 ± 1.2 µg/mL. For the same compound, the “Resistance index (RI)” value [2] was 0.7 and the IC50 [2, 9] was 12.7 ± 3.5 µM.

In the case of `C=C1C(=O)O[C@@H]2C3O[C@]3(C)CC/C=C(\C)C[C@@H](OC(C)=O)[C@@H]12` (stereo partly drawn) [Compound 8, lipiferolide], the “CHO Cell line (IC50)” value ([3]; CHO cells, MTT) is reported as 1.4 ± 0.2 µg/mL, the “Selectivity index (SI)” value [3] is reported as 0.8 and the IC50 ([3]; CHO cells, MTT) is reported as 4.6 ± 0.7 µM. The “Plasmodium falciparum D10 (IC50)” value [1, 6] was 1.8 ± 0.7 µg/mL, the IC50 [1, 7] was 5.9 ± 2.3 µM and the “Plasmodium falciparum Dd2: IC50” value [2, 8] was 2.3 ± 0.1 µg/mL. For the same compound, the “Resistance index (RI)” value [2] was 1.3 and the IC50 [2, 9] was 7.5 ± 0.3 µM.

For asimilobine [Compound 1], the “CHO Cell line (IC50)” value ([3]; CHO cells, MTT) was over 100 µg/mL, the “Selectivity index (SI)” value [3] was over 83 and the IC50 ([3]; CHO cells, MTT) was over 300 µM. The “Plasmodium falciparum D10 (IC50)” value [1, 6] was 1.2 ± 0.1 µg/mL, the IC50 [1, 7] was 4.5 ± 0.3 µM and the “Plasmodium falciparum Dd2: IC50” value [2, 8] was 5.8 ± 1.3 µg/mL. The “Resistance index (RI)” value [2] was 4.8 and the IC50 [2, 9] was 21.7 ± 6.3 µM.
